Columns and labels:
[1] = test system: cough caused by tracheal mechanical stimulus; settings: guinea pig, relative to codeine; cited from earlier work
[2] = test system: cough; settings: cited from earlier work
[3] = particle size distribution by laser diffraction (Malvern Mastersizer-2000, dry dispersion); format: physicochemical; settings: volume particle size distribution of the drug substance used
Description: Particle size is determined by laser light scattering using a particle size analyzer, such as the proprietary Mastersizer™ apparatus in a dry dispersion system available from Malvern Instruments Ltd. (Malvern Mastersizer-2000, single narrow mode). Laser diffraction enables to measure particle size distributions by measuring the angular variation by scattering light intensity as a laser beam passes through a dispersed particulate sample. Large particles scatter light at small angles relative to the laser beam and small particles scatter light at large angles. The angular scattering intensity data is then analyzed to calculate the size of the particles responsible for creating the scattering pattern, using the Mie theory of light scattering. The particle size is reported as a volume equivalent sphere diameter.
A common approach to define the distribution width is to cite three values on the x-axis as D10, D50 and D90. The D50, named as median, has been defined as the diameter where 50 percent of the distribution lies below this value. Similarly, D90 has been defined as 90 percent of the distribution lies below, and 10 percent of the population lies below the D10.

| Compound | efficacy against cough, times greater than codeine [1] | duration of action of a single dose ([2]; single dose) | initial response after oral administration ([2]; therapeutic dose range 10-20 mg three times daily for adults, oral) | d(0.1) [3] | d(0.5) [3] | d(0.9) [3] |
| --- | --- | --- | --- | --- | --- | --- |
| Clc1ccc(C(OCCN2CCCCC2)c2ccccc2)cc1 (racemic) [cloperastine] | 1.9 times | 3 to 4 h | 20 to 30 min |  |  |  |
| Clc1ccc([C@@H](OCCN2CCCCC2)c2ccccc2)cc1.O=C(O)c1ccccc1C(=O)c1ccc(O)c(-c2ccccc2)c1 [Levocloperastine fendizoate] |  |  |  | d(0.1): 3.031 µm | d(0.5): 13.126 µm | d(0.9): 39.322 µm |
